Experiments:
HeLa = test: Growth inhibition of human HeLa cells incubated for 1.5 hrs by MTT assay; format: functional, cell-based
A2780 = test: Growth inhibition of human A2780 cells incubated for 1.5 hrs by MTT assay; format: functional, cell-based; settings: A2780, 1.5 h
HCT-116 [1] = test: Growth inhibition of human HCT-116 cells incubated for 1.5 hrs by MTT assay; format: functional, cell-based; settings: HCT-116, 1.5 h
Tubulin (Bos taurus) [2] = molecular target: T1, Tubulin (Bos taurus) (UniProt Q6B856+Q862L2+Q862F3); test: (§1) Inhibition of bovine brain tubulin polymerization measured at 2 to 20 mins by spectrophotometer analysis; settings: time 2-20 min
Tubulin = Tubulin (Bos taurus, UniProt Q6B856+Q862L2+Q862F3); test: as §1
Tubulin (Bos taurus) [3] = molecular target: T1, Tubulin (Bos taurus); test: Inhibition of bovine brain tubulin polymerization at 6 uM measured at 2 to 20 mins by spectrophotometer analysis relative to control; settings: time 2-20 min
Tubulin (Bos taurus) [4] = molecular target: T1, Tubulin (Bos taurus); test: Inhibition of bovine brain tubulin polymerization at 12 uM measured at 2 to 20 mins by spectrophotometer analysis relative to control; settings: time 2-20 min
HCT-116 [5] = test: Induction of cell cycle arrest in human HCT-116 cells assessed as accumulation of cells at G1 phase at 1.5 uM incubated for 24 hrs by flow cytometry analysis (reference value: 68.74%); format: functional
HCT-116 [6] = test: Induction of cell cycle arrest in human HCT-116 cells assessed as accumulation of cells at G1 phase at 6 uM incubated for 24 hrs by flow cytometry analysis (reference value: 68.74%); format: functional
HCT-116 [7] = test: Induction of cell cycle arrest in human HCT-116 cells assessed as accumulation of cells at G2/M phase at 1.5 uM incubated for 24 hrs by flow cytometry analysis (reference value: 18.25%); format: functional
HCT-116 [8] = test: Induction of cell cycle arrest in human HCT-116 cells assessed as accumulation of cells at G2/M phase at 3 uM incubated for 24 hrs by flow cytometry analysis (reference value: 18.25%); format: functional
HCT-116 [9] = test: Induction of cell cycle arrest in human HCT-116 cells assessed as accumulation of cells at G2 phase at 1.5 uM incubated for 24 hrs by flow cytometry analysis (reference value: 18.25%); format: functional
HCT-116 [10] = test: Induction of cell cycle arrest in human HCT-116 cells assessed as accumulation of cells at G2 phase at 3 uM incubated for 24 hrs by flow cytometry analysis (reference value: 18.25%); format: functional
HCT-116 [11] = test: Induction of cell cycle arrest in human HCT-116 cells assessed as accumulation of cells at S phase at 1.5 uM incubated for 24 hrs by flow cytometry analysis (reference value: 3.61%); format: functional
HCT-116 [12] = test: Induction of apoptosis in human HCT-116 cells assessed as viable cells at 1.5 uM incubated for 24 hrs by annexin V-FITC/7-AAD staining based flow cytometry analysis (reference value: 90.19%); format: functional; settings: read-out: Activity
HCT-116 [13] = test: Induction of apoptosis in human HCT-116 cells assessed as viable cells at 3 uM incubated for 24 hrs by annexin V-FITC/7-AAD staining based flow cytometry analysis (reference value: 90.19%); format: functional; settings: read-out: Activity
HCT-116 [14] = test: Induction of apoptosis in human HCT-116 cells assessed as viable cells at 6 uM incubated for 24 hrs by annexin V-FITC/7-AAD staining based flow cytometry analysis (reference value: 90.19%); format: functional; settings: read-out: Activity
HCT-116 [15] = test: Induction of apoptosis in human HCT-116 cells assessed as early apoptotic cells at 1.5 uM incubated for 24 hrs by annexin V-FITC/7-AAD staining based flow cytometry analysis (reference value: 5.82%); format: functional
HCT-116 [16] = test: Induction of apoptosis in human HCT-116 cells assessed as early apoptotic cells at 3 uM incubated for 24 hrs by annexin V-FITC/7-AAD staining based flow cytometry analysis (reference value: 5.82%); format: functional
HCT-116 [17] = test: Induction of apoptosis in human HCT-116 cells assessed as early apoptotic cells at 6 uM incubated for 24 hrs by annexin V-FITC/7-AAD staining based flow cytometry analysis (reference value: 5.82%); format: functional
HCT-116 [18] = test: Induction of apoptosis in human HCT-116 cells assessed as late apoptotic cells at 1.5 uM incubated for 24 hrs by annexin V-FITC/7-AAD staining based flow cytometry analysis (reference value: 1.53%); format: functional
HCT-116 [19] = test: Induction of apoptosis in human HCT-116 cells assessed as late apoptotic cells at 3 uM incubated for 24 hrs by annexin V-FITC/7-AAD staining based flow cytometry analysis (reference value: 1.53%); format: functional
HCT-116 [20] = test: Induction of apoptosis in human HCT-116 cells assessed as late apoptotic cells at 6 uM incubated for 24 hrs by annexin V-FITC/7-AAD staining based flow cytometry analysis (reference value: 1.53%); format: functional
HCT-116 [21] = test: Induction of apoptosis in human HCT-116 cells assessed as necrotic cells at 1.5 uM incubated for 24 hrs by annexin V-FITC/7-AAD staining based flow cytometry analysis (reference value: 2.46%); format: functional
HCT-116 [22] = test: Induction of apoptosis in human HCT-116 cells assessed as necrotic cells at 3 uM incubated for 24 hrs by annexin V-FITC/7-AAD staining based flow cytometry analysis (reference value: 2.46%); format: functional
HCT-116 [23] = test: Induction of apoptosis in human HCT-116 cells assessed as necrotic cells at 6 uM incubated for 24 hrs by annexin V-FITC/7-AAD staining based flow cytometry analysis (reference value: 2.46%); format: functional
HCT-116 [24] = test: Inhibition of colony formation in human HCT-116 cells at 0.1 uM incubated for 48 hrs by crystal violet staining based analysis; format: functional; settings: HCT-116, 48 h, values are per cent of control
HCT-116 [25] = test: Inhibition of colony formation in human HCT-116 cells at 1 uM incubated for 48 hrs by crystal violet staining based analysis; format: functional; settings: HCT-116, 48 h, values are per cent of control
HCT-116 [26] = test: Inhibition of cell migration in human HCT-116 cells at 1 uM measured for 24 hrs by scratch wound healing assay; format: functional
HCT-116 [27] = test: Inhibition of cell migration in human HCT-116 cells at 2 uM measured for 24 hrs by scratch wound healing assay; format: functional
HCT-116 [28] = test: Inhibition of cell migration in human HCT-116 cells at 5 uM measured for 24 hrs by scratch wound healing assay; format: functional
HCT-116 [29] = test: Inhibition of cell migration in human HCT-116 cells measured for 24 hrs by scratch wound healing assay; format: functional, cell-based; settings: dose 0.5-5 µM
[30] = Cytotoxicity against HEK293 cells assessed as inhibition of cell growth incubated 1.5 hrs by MTT assay; format: toxicity, cell-based; settings: human
[31] = Cytotoxicity against human HUVEC cells assessed as inhibition of cell growth incubated 1.5 hrs by MTT assay; format: toxicity, cell-based
[32] = Potency index, ratio of test compound IC50 to colchicine IC50 for cytotoxicity against human HUVEC cells assessed as inhibition of cell growth incubated 1.5 hrs by MTT assay; format: toxicity, cell-based; settings: read-out: Ratio IC50
[33] = Potency index, ratio of test compound IC50 to 5-fluorouracil IC50 for cytotoxicity against human HUVEC cells assessed as inhibition of cell growth incubated 1.5 hrs by MTT assay; format: toxicity, cell-based; settings: read-out: Ratio IC50
[34] = molecular target: Voltage-gated inwardly rectifying potassium channel KCNH2 (Homo sapiens, UniProt Q12809); test: Inhibition of hERG expressed in CHO cells at 40 uM by automated patch clamp analysis; format: toxicity, cell-based
Voltage-gated inwardly rectifying potassium channel KCNH2, sequence (Q12809 whole entry): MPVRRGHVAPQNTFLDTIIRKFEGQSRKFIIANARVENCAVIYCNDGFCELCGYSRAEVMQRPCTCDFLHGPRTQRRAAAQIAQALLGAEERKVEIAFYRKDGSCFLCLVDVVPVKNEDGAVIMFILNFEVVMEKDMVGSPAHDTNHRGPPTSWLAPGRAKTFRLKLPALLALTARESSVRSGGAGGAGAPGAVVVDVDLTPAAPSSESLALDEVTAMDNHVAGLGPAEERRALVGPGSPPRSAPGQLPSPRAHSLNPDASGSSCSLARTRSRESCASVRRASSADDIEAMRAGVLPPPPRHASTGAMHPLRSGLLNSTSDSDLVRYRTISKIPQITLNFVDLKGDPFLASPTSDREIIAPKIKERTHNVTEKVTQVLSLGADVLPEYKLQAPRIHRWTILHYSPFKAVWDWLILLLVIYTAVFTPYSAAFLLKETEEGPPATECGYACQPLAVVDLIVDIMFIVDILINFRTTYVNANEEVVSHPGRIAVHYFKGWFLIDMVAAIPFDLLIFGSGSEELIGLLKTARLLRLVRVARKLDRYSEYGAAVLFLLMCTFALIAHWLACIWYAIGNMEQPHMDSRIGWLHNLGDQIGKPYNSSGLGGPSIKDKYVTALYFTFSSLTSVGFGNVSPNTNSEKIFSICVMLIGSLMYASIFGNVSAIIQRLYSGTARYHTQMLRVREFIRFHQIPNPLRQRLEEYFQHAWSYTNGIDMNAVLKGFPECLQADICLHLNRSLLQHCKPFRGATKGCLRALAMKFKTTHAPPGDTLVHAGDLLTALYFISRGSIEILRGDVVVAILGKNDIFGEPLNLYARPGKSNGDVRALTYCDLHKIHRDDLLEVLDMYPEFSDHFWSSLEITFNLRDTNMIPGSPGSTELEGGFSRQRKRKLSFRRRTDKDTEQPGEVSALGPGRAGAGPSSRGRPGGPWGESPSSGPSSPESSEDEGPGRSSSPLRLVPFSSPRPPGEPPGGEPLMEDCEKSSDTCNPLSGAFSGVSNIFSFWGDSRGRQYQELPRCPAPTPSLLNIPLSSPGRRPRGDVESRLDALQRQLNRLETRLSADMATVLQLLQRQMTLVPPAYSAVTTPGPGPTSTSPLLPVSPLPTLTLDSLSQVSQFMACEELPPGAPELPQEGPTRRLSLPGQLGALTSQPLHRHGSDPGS

Question: For CCOc1ccc([C@H]2CC(=O)c3cc(OC)c(OC)c(OC)c32)cc1F, which IC50 (HeLa) is on record?
Answer: 0.38 µM

Question: What about the IC50 (A2780) of the same molecule?
Answer: 0.59 µM

Question: What about the IC50 (HCT-116 [1]) of the same molecule?
Answer: 0.26 µM

Question: And the inhibition (Tubulin (Bos taurus) [2])?
Answer: Dose-Dependent Effect

Question: And the IC50 (Tubulin)?
Answer: 6.1 µM

Question: And the inhibition (Tubulin (Bos taurus) [3])?
Answer: 54%

Question: And the inhibition (Tubulin (Bos taurus) [4])?
Answer: 66%

Question: What about the Activity (HCT-116 [5]) of the same molecule?
Answer: 65.69%

Question: What about the Activity (HCT-116 [6]) of the same molecule?
Answer: 35.2%

Question: What about the Activity (HCT-116 [7]) of the same molecule?
Answer: 24.41%

Question: What about the Activity (HCT-116 [8]) of the same molecule?
Answer: 28.73%

Question: And the Activity (HCT-116 [9])?
Answer: 24.4%

Question: What about the Activity (HCT-116 [10]) of the same molecule?
Answer: 28.73%

Question: What about the Activity (HCT-116 [11]) of the same molecule?
Answer: 7.57%

Question: And the viability at 1.5 µM (HCT-116 [12])?
Answer: 86.7%

Question: What about the viability at 3 µM (HCT-116 [13]) of the same molecule?
Answer: 73%

Question: And the viability at 6 µM (HCT-116 [14])?
Answer: 60.5%

Question: What about the Activity (HCT-116 [15]) of the same molecule?
Answer: 8.12%

Question: And the Activity (HCT-116 [16])?
Answer: 18.75%

Question: And the Activity (HCT-116 [17])?
Answer: 21.2%

Question: And the Activity (HCT-116 [18])?
Answer: 2.85%

Question: What about the Activity (HCT-116 [19]) of the same molecule?
Answer: 5.07%

Question: And the Activity (HCT-116 [20])?
Answer: 13.77%

Question: What about the Activity (HCT-116 [21]) of the same molecule?
Answer: 2.28%

Question: And the Activity (HCT-116 [22])?
Answer: 3.2%

Question: What about the Activity (HCT-116 [23]) of the same molecule?
Answer: 4.48%

Question: And the growth, % of control at 0.1 µM (HCT-116 [24])?
Answer: 57.9%

Question: What about the growth, % of control at 1 µM (HCT-116 [25]) of the same molecule?
Answer: 1.3%

Question: And the inhibition at 1 µM (HCT-116 [26])?
Answer: 43%

Question: What about the inhibition at 2 µM (HCT-116 [27]) of the same molecule?
Answer: 55%

Question: And the inhibition at 5 µM (HCT-116 [28])?
Answer: 80%

Question: And the inhibition (HCT-116 [29])?
Answer: Dose-Dependent Effect

Question: What about the IC50 at 1.5 h [30] of the same molecule?
Answer: 7.45 µM

Question: And the IC50 at 1.5 h [31]?
Answer: 15 µM

Question: What about the selectivity ratio at 1.5 h [32] of the same molecule?
Answer: 35

Question: What about the selectivity ratio at 1.5 h [33] of the same molecule?
Answer: 1.6

Question: And the IC50 [34]?
Answer: > 40 µM
